# Measured values as given in patent US11780826B2 (Amgen Inc., priority 2017, dated 2023).
# Tested on: Bovine cardiac myofibrils
# Assay: In vitro model of dose-dependent myofibril ATPase modulation (AC1.4, pyruvate kinase/lactate dehydrogenase-coupled ATPase assay at pCa25)
# Assay type: biochemical
# Conditions: concentration at which ATPase activity was 1.4-fold higher than the bottom of the dose curve, mean of a minimum of two independent tests
# Outline: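 Detergent-skinned bovine cardiac myofibrils (typically 0.25-1.0 mg/ml) in Ca-buffered (EGTA/CaCl2) PK/LDH-coupled ATPase assay: 12 mM K-PIPES pH 6.80, 2 mM MgCl2, 1 mM ATP, 1 mM DTT, 0.5 mM NADH, 1.5 mM PEP. Hydrolysis followed at 340 nm; dose response fit to 4-parameter equation; AC1.4 is mean of ≥2 tests.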
row,SMILES,AC1.4
1,"O=C(NCc1ccc(C(F)(F)F)cc1)[C@H]1CCCN1C(=O)[C@H]1CCCN(S(=O)(=O)N2CCC2c2ccccc2)C1 (stereo partly drawn) [Example 339, 1-(((3S)-1-(((2R)-2-phenyl-1-azetidinyl)sulfonyl)-3-piperidinyl)carbonyl)-N-(4-(trifluoromethyl)benzyl)-D-prolinamide,1-(((3S)-1-(((2S)-2-phenyl-1-azetidinyl)sulfonyl)-3-piperidinyl)carbonyl)-N-(4-(trifluoromethyl)benzyl)-D-prolinamide]",0.9511 µM
2,"NS(=O)(=O)c1cccc(C(=O)N2C[C@H]3C[C@H]3[C@@H]2C(=O)N[C@@H](c2cc(F)c(Cl)cc2F)C2CC2)c1 [Example 340, (1R,2R,5S)-N-((R)-(4-chloro-2,5-difluorophenyl)(cyclopropyl)methyl)-3-(3-sulfamoylbenzoyl)-3-azabicyclo[3.1.0]hexane-2-carboxamide]",0.8898 µM
3,"C[C@H](C(=O)NCc1ccc(Cl)c(Cl)c1)N(C)C(=O)c1cccc(S(=O)(=O)N2CC(C#N)C2)c1 [Example 341, 3-((3-cyano-1-azetidinyl)sulfonyl)-N-((1R)-2-((3,4-dichlorobenzyl)amino)-1-methyl-2-oxoethyl)-N-methylbenzamide]",0.9606 µM
4,"CS(=O)(=O)c1cncc(C(=O)N2CSC[C@@H]2C(=O)N[C@@H](c2ccc(C(F)(F)F)cc2F)C2CC2)c1 [Example 342, (4S)-N-((R)-cyclopropyl(2-fluoro-4-(trifluoromethyl)phenyl)methyl)-3-((5-(methylsulfonyl)-3-pyridinyl)carbonyl)-1,3-thiazolidine-4-carboxamide]",0.9661 µM
5,"O=C(NCc1ccc(C(F)(F)F)cc1)[C@H]1CCCN1C(=O)[C@H]1CCCN(S(=O)(=O)N2CC(OC(F)F)C2)C1 [Example 343, 1-(((3S)-1-((3-(difluoromethoxy)-1-azetidinyl)sulfonyl)-3-piperidinyl)carbonyl)-N-(4-(trifluoromethyl)benzyl)-D-prolinamide]",0.9742 µM

# Other lines, results leading:
row,AC1.4,SMILES
1,0.9555 µM,"CS(=O)(=O)c1cccc(C(=O)N2[C@@H](C(=O)N[C@@H](c3ccc(Cl)cc3F)C3CC3)C[C@H]3C[C@H]32)c1 [Example 344, (1R,3R,5R)-N-((R)-(4-chloro-2-fluorophenyl)(cyclopropyl)methyl)-2-(3-(methylsulfonyl)benzoyl)-2-azabicyclo[3.1.0]hexane-3-carboxamide]"
2,0.9744 µM,"CS(=O)(=O)c1ccc(N)c(C(=O)N2CCC[C@@H]2C(=O)N[C@@H](c2ccc(C(F)(F)F)cc2F)C2CC2)c1 [Example 345, 1-(2-amino-5-(methylsulfonyl)benzoyl)-N-((R)-cyclopropyl(2-fluoro-4-(trifluoromethyl)phenyl)methyl)-D-prolinamide]"
3,1.0139 µM,"COC(=O)CN(C)S(=O)(=O)c1cccc(C(=O)N2CCC[C@@H]2C(=O)NCc2ccc(C(F)(F)F)cc2)c1 [Example 346, methyl (R)-2-(N-methyl-3-(2-((4-(trifluoromethyl)benzyl)carbamoyl)pyrrolidine-1-carbonyl)phenylsulfonamido)acetate]"
4,1.0255 µM,"O=C(N[C@@H](c1ccc(C(F)(F)F)cc1F)C1CC1)[C@H]1CCCCN1C(=O)c1cccc(C(O)C(F)(F)F)c1 (stereo partly drawn) [Example 347, (2R)-N-((R)-cyclopropyl(2-fluoro-4-(trifluoromethyl)phenyl)methyl)-1-(3-(2,2,2-trifluoro-1-hydroxyethyl)benzoyl)piperidine-2-carboxamide]"
5,1.0273 µM,"N#CC1CN(S(=O)(=O)N2CCC[C@H](C(=O)N3[C@@H](C(=O)NCc4ccc(C(F)(F)F)cn4)C[C@H]4C[C@H]43)C2)C1 [Example 348, (1R,3R,5R)-2-(((3S)-1-((3-cyano-1-azetidinyl)sulfonyl)-3-piperidinyl)carbonyl)-N-((5-(trifluoromethyl)-2-pyridinyl)methyl)-2-azabicyclo[3.1.0]hexane-3-carboxamide]"
